Source: US9085555B2, “Complement pathway modulators and uses thereof” (priority 2011, dated 2015)

Each compound was assayed against Factor D (Homo sapiens (Human), UniProt P00746) (assay: biochemical). Details: read-out: IC50.
Assay type: biochemical

Factor D, sequence (P00746 26-253): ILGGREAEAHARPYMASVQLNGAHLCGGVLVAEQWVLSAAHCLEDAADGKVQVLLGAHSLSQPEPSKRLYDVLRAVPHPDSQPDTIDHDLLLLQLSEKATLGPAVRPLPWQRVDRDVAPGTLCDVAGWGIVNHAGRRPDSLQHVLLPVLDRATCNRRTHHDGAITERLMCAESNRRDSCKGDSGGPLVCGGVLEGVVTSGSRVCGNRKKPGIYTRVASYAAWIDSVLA

SMILES | IC50 [nM]
CC(=O)c1cn(CC(=O)N2[C@@H]3C[C@@H]3C[C@H]2C(=O)NCc2cccc(Cl)c2F)c2nc(C#N)ccc12 [Example 532, (1R,3S,5R)-2-[2-(3-Acetyl-6-cyano-pyrrolo[2,3-b]pyridin-1-yl)-acetyl]-2-aza-bicyclo[3.1.0] hexane-3-carboxylic acid 3-chloro-2-fluoro-benzylamide] | 223
COC[C@@H](NC(=O)[C@@H]1C[C@H]2C[C@H]2N1C(=O)Cn1cc(C(C)=O)c2cccnc21)c1cccc(Cl)c1F [Example 533, (1R,3S,5R)-2-[2-(3-Acetyl-pyrrolo[2,3-b]pyridin-1-yl)-acetyl]-2-aza-bicyclo[3.1.0] hexane-3-carboxylic acid [(S)-1-(3-chloro-2-fluoro-phenyl)-2-methoxy-ethyl]-amide] | 34
COC[C@@H](NC(=O)[C@@H]1C[C@H]2C[C@H]2N1C(=O)Cn1cc(C(C)=O)c2ccncc21)c1cccc(Cl)c1F [Example 535, (1R,3S,5R)-2-[2-(3-Acetyl-pyrrolo[2,3-c]pyridin-1-yl)-acetyl]-2-aza-bicyclo[3.1.0] hexane-3-carboxylic acid [(S)-1-(3-chloro-2-fluoro-phenyl)-2-methoxy-ethyl]-amide] | 62
CC(=O)c1cn(CC(=O)N2[C@@H]3C[C@@H]3C[C@H]2C(=O)NCc2cccc(Cl)c2F)c2cc(OCc3ccccc3)ccc12 [Example 536, (1R,3S,5R)-2-[2-(3-Acetyl-6-benzyloxy-indol-1-yl)-acetyl]-2-aza-bicyclo[3.1.0]hexane-3-carboxylic acid 3-chloro-2-fluoro-benzylamide] | 121
CC(=O)c1cn(CC(=O)N2C[C@H]3C[C@H]3[C@H]2C(=O)NCc2cccc(Cl)c2F)c2ccncc12 [Example 537, (1R,2S,5S)-3-[2-(3-Acetyl-pyrrolo[3,2-c]pyridin-1-yl)-acetyl]-3-aza-bicyclo[3.1.0] hexane-2-carboxylic acid 3-chloro-2-fluoro-benzylamide] | 609
CC(=O)c1cn(CC(=O)N2C[C@H]3C[C@H]3[C@H]2C(=O)NCc2cccc(Cl)c2F)c2ncccc12 [Example 538, (1R,2S,5S)-3-[2-(3-Acetyl-pyrrolo[2,3-b]pyridin-1-yl)-acetyl]-3-aza-bicyclo[3.1.0] hexane-2-carboxylic acid 3-chloro-2-fluoro-benzylamide] | 911
CC(=O)c1cn(CC(=O)N2C[C@H](F)C[C@H]2C(=O)NCc2cccc(Cl)c2F)c2ccc(OC(F)(F)F)cc12 [Example 539, (2S,4R)-1-[2-(3-Acetyl-5-trifluoromethoxy-indol-1-yl)-acetyl]-4-fluoro-pyrrolidine-2-carboxylic acid 3-chloro-2-fluoro-benzylamide] | 31
COC(=O)c1ccc2c(c1)c(C(C)=O)cn2CC(=O)N1[C@@H]2C[C@@H]2C[C@H]1C(=O)NCc1cccc(Cl)c1F [Example 540, 3-Acetyl-1-{2-[(1R,3S,5R)-3-(3-chloro-2-fluoro-benzylcarbamoyl)-2-aza-bicyclo[3.1.0]hex-2-yl]-2-oxo-ethyl}-1H-indole-5-carboxylic acid methyl ester] | 236
COC(=O)c1cccc2c(C(C)=O)cn(CC(=O)N3[C@@H]4C[C@@H]4C[C@H]3C(=O)NCc3cccc(Cl)c3F)c12 [Example 541, 3-Acetyl-1-{2-[(1R,3S,5R)-3-(3-chloro-2-fluorobenzylcarbamoyl)-2-aza-bicyclo[3.1.0]hex-2-yl]-2-oxo-ethyl}-1H-indole-7-carboxylic acid methyl ester] | 91
COC(=O)c1ccc2c(C(C)=O)cn(CC(=O)N3C[C@H](F)C[C@H]3C(=O)NCc3cccc(Cl)c3F)c2c1 [Example 542, 3-Acetyl-1-{2-[(2S,4R)-2-(3-chloro-2-fluoro-benzylcarbamoyl)-4-fluoro-pyrrolidin-1-yl]-2-oxo-ethyl}-1H-indole-6-carboxylic acid methyl ester] | 19
C[C@@]1(F)C[C@@H](C(=O)NCc2cccc(Cl)c2F)N(C(=O)Cn2cc(C(=O)CO)c3ccccc32)C1 [Example 543, (2S,4R)-4-Fluoro-1-{2-[3-(2-hydroxy-acetyl)-indol-1-yl]-acetyl}-4-methyl-pyrrolidine-2-carboxylic acid 3-chloro-2-fluoro-benzylamide] | 245
CC(=O)c1cn(CC(=O)N2C[C@@H]3C[C@@H]3[C@H]2C(=O)NCc2cccc(Cl)c2F)c2cnccc12 [Example 544, (1S,2S,5R)-3-[2-(3-Acetyl-pyrrolo[2,3-c]pyridin-1-yl)-acetyl]-3-aza-bicyclo[3.1.0] hexane-2-carboxylic acid 3-chloro-2-fluoro-benzylamide] | 1110
COC(=O)Cc1ccc2c(C(C)=O)cn(CC(=O)N3[C@@H]4C[C@@H]4C[C@H]3C(=O)NCc3cccc(Cl)c3F)c2c1 [Example 545, (3-Acetyl-1-{2-[(1R,3S,5R)-3-(3-chloro-2-fluoro-benzylcarbamoyl)-2-aza-bicyclo[3.1.0]hex-2-yl]-2-oxo-ethyl}-1H-indol-6-yl)-acetic acid methyl ester] | 113
CC(=O)c1cn(CC(=O)N2C[C@H](F)C[C@H]2C(=O)NCc2cccc(Cl)c2F)c2ncccc12 [Example 547, (2S,4R)-1-[2-(3-Acetyl-pyrrolo[2,3-b]pyridin-1-yl)-acetyl]-4-fluoro-pyrrolidine-2-carboxylic acid 3-chloro-2-fluoro-benzylamide] | 38
COC(=O)c1ccc2c(C(C)=O)cn(CC(=O)N3C[C@](C)(F)C[C@H]3C(=O)NCc3cccc(Cl)c3F)c2c1 [Example 548, 3-Acetyl-1-{2-[(2S,4R)-2-(3-chloro-2-fluoro-benzylcarbamoyl)-4-fluoro-4-methyl-pyrrolidin-1-yl]-2-oxo-ethyl}-1H-indole-6-carboxylic acid methyl ester] | 363
COC(=O)Cc1ccc2c(C(C)=O)cn(CC(=O)N3C[C@H](F)C[C@H]3C(=O)NCc3cccc(Cl)c3F)c2c1 [Example 549, (3-Acetyl-1-{2-[(2S,4R)-2-(3-chloro-2-fluoro-benzylcarbamoyl)-4-fluoro-pyrrolidin-1-yl]-2-oxo-ethyl}-1H-indol-6-yl)-acetic acid methyl ester] | 69
CC(=O)c1cn(CC(=O)N2[C@@H]3C[C@@H]3C[C@H]2C(=O)NCc2cccc(Cl)c2F)c2cnccc12 [Example 550, (1R,3S,5R)-2-[2-(3-Acetyl-pyrrolo[2,3-c]pyridin-1-yl)-acetyl]-2-aza-bicyclo[3.1.0]hexane-3-carboxylic acid 3-chloro-2-fluorobenzylamide] | 33
O=C(CO)c1cn(CC(=O)N2C[C@H](F)C[C@H]2C(=O)N[C@H](CF)c2cccc(Br)c2)c2ccccc12 [Example 551, (2S,4R)-4-Fluoro-1-{2-[3-(2-hydroxy-acetyl)-indol-1-yl]-acetyl}-pyrrolidine-2-carboxylic acid [(S)-1-(3-bromo-phenyl)-2-fluoro-ethyl]-amide] | 899
CC(=O)c1cn(CC(=O)N2C[C@H](F)C[C@H]2C(=O)NCc2cccc(Cl)c2F)c2cnccc12 [Example 552, (2S,4R)-1-[2-(3-Acetyl-pyrrolo[2,3-c]pyridin-1-yl)-acetyl]-4-fluoro-pyrrolidine-2-carboxylic acid 3-chloro-2-fluoro-benzylamide] | 40
CC(=O)c1cn(CC(=O)N2[C@@H]3C[C@@H]3C[C@H]2C(=O)NCc2cccc(Cl)c2F)c2cccnc12 [Example 553, (1R,3S,5R)-2-[2-(3-Acetyl-pyrrolo[3,2-b]pyridin-1-yl)-acetyl]-2-aza-bicyclo[3.1.0] hexane-3-carboxylic acid 3-chloro-2-fluoro-benzylamide] | 5300
C[C@@]1(F)C[C@@H](C(=O)NCc2cccc(Cl)c2F)N(C(=O)Cn2cc(C(=O)C(F)(F)F)c3ccccc32)C1 [Example 554, (2S,4R)-4-Fluoro-4-methyl-1-{2-[3-(2,2,2-trifluoro-acetyl)-indol-1-yl]-acetyl}-pyrrolidine-2-carboxylic acid 3-chloro-2-fluoro-benzylamide] | 44
CC(=O)c1cn(CC(=O)N2C[C@@H](N(C)C)[C@H](F)[C@H]2C(=O)NCc2cccc(Cl)c2F)c2ccccc12 [Example 555, (2R,3S,4R)-1-[2-(3-Acetyl-indol-1-yl)-acetyl]-4-dimethylamino-3-fluoro-pyrrolidine-2-carboxylic acid 3-chloro-2-fluoro-benzylamide] | 2270
O=C(CO)c1cn(CC(=O)N2[C@@H]3C[C@@H]3C[C@H]2C(=O)NCc2cccc(Cl)c2F)c2ccccc12 [Example 556, (1R,3S,5R)-2-{2-[3-(2-Hydroxy-acetyl)-indol-1-yl]-acetyl}-2-aza-bicyclo[3.1.0] hexane-3-carboxylic acid 3-chloro-2-fluoro-benzylamide] | 25
CC(=O)c1cn(CC(=O)N2[C@@H]3C[C@@H]3C[C@H]2C(=O)N[C@H](CCO)c2cccc(Cl)c2F)c2ncccc12 [Example 557, (1R,3S,5R)-2-[2-(3-Acetyl-pyrrolo[2,3-b]pyridin-1-yl)-acetyl]-2-aza-bicyclo[3.1.0] hexane-3-carboxylic acid [(R)-1-(3-chloro-2-fluoro-phenyl)-3-hydroxy-propyl]-amide] | 134
CC(=O)c1cn(CC(=O)N2[C@@H]3C[C@@H]3C[C@H]2C(=O)Nc2cccc(OC(F)(F)F)c2)c2ncccc12 [Example 558, (1R,3S,5R)-2-[2-(3-Acetyl-pyrrolo[2,3-b]pyridin-1-yl)-acetyl]-2-aza-bicyclo[3.1.0] hexane-3-carboxylic acid (3-trifluoromethoxy-phenyl)-amide] | 1990
COc1ccc2c(c1)c(C=O)cn2CC(=O)N1C[C@H](F)C[C@H]1C(=O)NCc1cccc(Cl)c1F [Example 560, (2S,4R)-4-Fluoro-1-[2-(3-formyl-5-methoxy-indol-1-yl)-acetyl]-pyrrolidine-2-carboxylic acid 3-chloro-2-fluoro-benzylamide] | 141
O=C(NCc1cccc(Cl)c1F)[C@@H]1C[C@@H](F)CN1C(=O)Cn1cc(C(=O)C(F)(F)F)c2ccccc21 [Example 561, (2S,4R)-4-Fluoro-1-{2-[3-(2,2,2-trifluoro-acetyl)-indol-1-yl]-acetyl}-pyrrolidine-2-carboxylic acid 3-chloro-2-fluoro-benzylamide] | 14
